Measured values from PMC9005971, “Discovery of 2-(4-Acrylamidophenyl)-Quinoline-4-Carboxylic Acid Derivatives as Potent SIRT3 Inhibitors” (Frontiers in Chemistry, 2022).
Each block holds one compound with its values, some of them ahead of it.

Assays:
[1] = target: T1, SIRT3 (Homo sapiens, UniProt Q9NTG7); test: SIRT3 enzyme inhibitory assay (fluorescence); format: biochemical; settings: dose of 10 μM; mean of three experiments; read-out: SIRT3 percentage inhibitory rate
T1 sequence (Q9NTG7 1-399): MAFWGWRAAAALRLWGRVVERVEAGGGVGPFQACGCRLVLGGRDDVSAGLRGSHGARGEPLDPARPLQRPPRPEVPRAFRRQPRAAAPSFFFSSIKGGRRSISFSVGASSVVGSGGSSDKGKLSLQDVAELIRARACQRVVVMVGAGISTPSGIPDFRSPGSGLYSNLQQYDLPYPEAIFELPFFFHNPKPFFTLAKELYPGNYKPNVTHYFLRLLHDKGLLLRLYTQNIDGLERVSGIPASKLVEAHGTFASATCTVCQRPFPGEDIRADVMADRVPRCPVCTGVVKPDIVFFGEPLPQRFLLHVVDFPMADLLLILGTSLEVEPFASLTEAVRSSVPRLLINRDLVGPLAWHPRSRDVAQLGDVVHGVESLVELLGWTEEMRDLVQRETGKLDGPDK
Procedure: (§1) All of the enzymatic reactions were conducted at 37°C for 30 min. […] The compounds were diluted in 10% DMSO and 5 ul of the dilution was added to each reaction mixture (50 ul). The assay was performed by quantitating the amount of fluorescent product generated from the enzyme reaction. Fluorescence intensity is then analyzed at excitation wavelength of 350–360 nm and emission wavelength of 450–460 nm on a SpectraMax M5 microtiter plate reader. The IC50 values were calculated using Prism GraphPad software.

[2] = system: THP-1 cells; test: In vitro antiproliferative CCK-8 assay, THP-1; format: cell-based; settings: Homo sapiens, dose of 1 μM, mean of three experiments, read-out: THP-1 percentage inhibitory rate
Procedure: The proliferation of THP-1, MOLM-13, SEM and MV4-11 cells was tested by CCK-8 assay. Briefly, cells were seeded in 96-well plate with about 5 × 10^3 cells in each well. The cells were treated with P6 or Ara-C (0–10 µM) after 24 h of incubation. CCK-8 reagent ([…]) was added to each well after 72 h of incubation, and cells were incubated at 37°C for 4 h. The light absorbance at 450 nm was measured by using an Opsys microplate reader (Dynex Technologirs, Chantilly, VA, United States). Results are illustrated as percent of cell viability normalized to DMSO-treated control cells.

[3] = target: T2, SIRT2 (Homo sapiens, UniProt Q8IXJ6); test: SIRT2 enzyme inhibitory assay (fluorescence); format: biochemical; settings: for activity at 0.01 µM / activity at 0.033 µM / activity at 0.1 µM / activity at 0.333 µM / activity at 1 µM / activity at 3.3 µM / activity at 10 µM / activity at 33 µM / activity at 100 µM: SIRT2 enzyme activity; for activity at 0.01 µM: 10 nM; for activity at 0.033 µM: 33 nM; for activity at 0.1 µM: 100 nM; for activity at 0.333 µM: 333 nM
T2 sequence (Q8IXJ6 1-389): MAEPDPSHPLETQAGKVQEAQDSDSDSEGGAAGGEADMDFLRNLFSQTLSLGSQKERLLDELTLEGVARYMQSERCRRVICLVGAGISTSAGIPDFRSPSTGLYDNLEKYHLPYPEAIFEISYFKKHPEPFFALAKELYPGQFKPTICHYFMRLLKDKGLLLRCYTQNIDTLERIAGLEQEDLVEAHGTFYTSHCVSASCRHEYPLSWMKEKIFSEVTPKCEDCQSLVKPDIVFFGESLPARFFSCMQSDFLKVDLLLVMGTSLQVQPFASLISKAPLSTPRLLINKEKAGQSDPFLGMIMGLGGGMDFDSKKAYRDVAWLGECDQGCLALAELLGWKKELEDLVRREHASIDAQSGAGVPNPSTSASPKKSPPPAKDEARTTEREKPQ
Procedure: as §1

[4] = target: T3, SIRT1 (Homo sapiens, UniProt Q96EB6); test: SIRT1 enzyme inhibitory assay (fluorescence); format: biochemical; settings: SIRT1 enzyme activity; for activity at 0.333 µM: 333 nM
T3 sequence (Q96EB6 1-747): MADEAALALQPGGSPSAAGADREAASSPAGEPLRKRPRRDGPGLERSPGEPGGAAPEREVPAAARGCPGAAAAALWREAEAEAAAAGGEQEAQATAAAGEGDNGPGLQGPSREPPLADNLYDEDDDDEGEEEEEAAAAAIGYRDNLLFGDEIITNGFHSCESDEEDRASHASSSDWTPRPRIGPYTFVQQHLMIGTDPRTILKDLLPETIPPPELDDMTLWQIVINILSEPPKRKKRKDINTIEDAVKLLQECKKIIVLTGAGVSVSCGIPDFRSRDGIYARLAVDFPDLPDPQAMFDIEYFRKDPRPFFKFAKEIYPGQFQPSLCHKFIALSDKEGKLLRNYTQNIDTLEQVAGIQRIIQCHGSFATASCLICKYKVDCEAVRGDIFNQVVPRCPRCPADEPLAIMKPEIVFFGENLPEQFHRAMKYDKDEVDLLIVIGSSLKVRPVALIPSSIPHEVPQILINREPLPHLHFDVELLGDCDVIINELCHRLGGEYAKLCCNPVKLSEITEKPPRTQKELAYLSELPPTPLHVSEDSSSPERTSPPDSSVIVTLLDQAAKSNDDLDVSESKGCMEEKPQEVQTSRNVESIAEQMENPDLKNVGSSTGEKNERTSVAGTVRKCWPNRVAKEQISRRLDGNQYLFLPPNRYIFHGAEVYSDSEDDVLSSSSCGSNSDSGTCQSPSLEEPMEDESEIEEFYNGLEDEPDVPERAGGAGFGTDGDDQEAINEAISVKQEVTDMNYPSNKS
Procedure: as §1

Compound: C=CC(=O)Nc1ccc(-c2cc(C(=O)N3CCN(c4ccc(OC)cc4)CC3)c3ccccc3n2)cc1 [Compound P7, N-(4-{4-[4-(4-Methoxy-phenyl)-piperazine-1-carbonyl]-quinolin-2-yl}-phenyl)-acrylamide]
inhibition at 10 µM [1]: 24.9 ± 1.47%
inhibition at 1 µM [2]: 12.4 ± 1.07%

Compound: C=CC(=O)Nc1ccc(-c2cc(C(=O)Nc3ccc(Br)cc3)c3ccccc3n2)cc1 [Compound P10, 2-(4-Acryloylamino-phenyl)-quinoline-4-carboxylic acid (4-bromo-phenyl)-amide]
inhibition at 10 µM [1]: 26.8 ± 1.88%
inhibition at 1 µM [2]: 44.3 ± 1.96%

Compound: C=CC(=O)Nc1ccc(-c2cc(C(=O)Nc3ccc(C)cc3)c3ccccc3n2)cc1 [Compound P12, 2-(4-Acryloylamino-phenyl)-quinoline-4-carboxylic acid p-tolylamide]
inhibition at 10 µM [1]: 38.9 ± 2.62%
inhibition at 1 µM [2]: 72.8 ± 3.25%

Compound: C=CC(=O)Nc1ccc(-c2cc(C(=O)N3CCN(c4ccc(Cl)cc4)CC3)c3ccccc3n2)cc1 [Compound P5, N-(4-{4-[4-(4-Chloro-phenyl)-piperazine-1-carbonyl]-quinolin-2-yl}-phenyl)-acrylamide]
inhibition at 10 µM [1]: 22.6 ± 1.87%
inhibition at 1 µM [2]: 56 ± 2.66%

Compound: NC(=O)c1cccnc1 [Nicotinamide, reference compound]
activity at 0.01 µM ([3]; Repeat1): 100%
activity at 0.01 µM ([3]; Repeat2): 99%
activity at 0.033 µM ([3]; Repeat1): 99%
activity at 0.033 µM ([3]; Repeat2): 98%
activity at 0.1 µM ([3]; Repeat1): 97%
activity at 0.333 µM ([3]; Repeat1): 100%
activity at 0.333 µM ([3]; Repeat2): 100%
activity at 1 µM ([3]; Repeat2): 99%
activity at 3.3 µM ([3]; Repeat1): 92%
activity at 3.3 µM ([3]; Repeat2): 91%
activity at 10 µM ([3]; Repeat1): 79%
activity at 10 µM ([3]; Repeat2): 69%
activity at 33 µM ([3]; Repeat1): 39%
activity at 33 µM ([3]; Repeat2): 43%
activity at 100 µM ([3]; Repeat1): 17%
activity at 100 µM ([3]; Repeat2): 12%
activity at 0.01 µM ([4]; 10 nM, Repeat2): 98%
activity at 0.033 µM ([4]; 33 nM, Repeat2): 99%
activity at 0.1 µM ([4]; 100 nM, Repeat1): 98%
activity at 0.333 µM ([4]; Repeat1): 99%
activity at 0.333 µM ([4]; Repeat2): 97%
activity at 1 µM ([4]; 1 µM, Repeat1): 100%
activity at 3.3 µM ([4]; Repeat1): 93%
activity at 3.3 µM ([4]; Repeat2): 96%
activity at 10 µM ([4]; Repeat1): 79%
activity at 10 µM ([4]; Repeat2): 73%
activity at 33 µM ([4]; Repeat1): 59%
activity at 33 µM ([4]; Repeat2): 52%
activity at 100 µM ([4]; Repeat1): 10%
activity at 100 µM ([4]; Repeat2): 17%

Continued, in another order:

inhibition at 10 µM [1]: 42.8 ± 1.26%
Compound: C=CC(=O)Nc1ccc(-c2cc(C(=O)Nc3cc(OC)cc(OC)c3)c3ccccc3n2)cc1 [Compound P15, 2-(4-Acryloylamino-phenyl)-quinoline-4-carboxylic acid (3,5-dimethoxy-phenyl)-amide]
inhibition at 1 µM [2]: 49.6 ± 2.52%

inhibition at 10 µM [1]: 28.4 ± 1.85%
Compound: C=CC(=O)Nc1ccc(-c2cc(C(=O)Nc3ccc(OC)cc3)c3ccccc3n2)cc1 [Compound P16, 2-(4-Acryloylamino-phenyl)-quinoline-4-carboxylic acid (4-methoxy-phenyl)-amide]
inhibition at 1 µM [2]: 13.3 ± 1.23%

inhibition at 10 µM [1]: 30.6 ± 2.89%
Compound: C=CC(=O)Nc1ccc(-c2cc(C(=O)Nc3ccc(CCCCC)cc3)c3ccccc3n2)cc1 [Compound P18, 2-(4-Acryloylamino-phenyl)-quinoline-4-carboxylic acid (4-pentyl-phenyl)-amide]
inhibition at 1 µM [2]: 30 ± 1.39%

inhibition at 10 µM [1]: 45.1 ± 2.55%
Compound: C=CC(=O)Nc1ccc(-c2cc(C(=O)Nc3ccc4c(c3)OCO4)c3ccccc3n2)cc1 [Compound P20, 2-(4-Acryloylamino-phenyl)-quinoline-4-carboxylic acid benzo [1,3]dioxol-5-ylamide]
inhibition at 1 µM [2]: 28.1 ± 1.76%

activity at 0.01 µM ([3]; Repeat1): 101%
activity at 0.01 µM ([3]; Repeat2): 99%
activity at 0.033 µM ([3]; Repeat1): 99%
activity at 0.033 µM ([3]; Repeat2): 99%
activity at 0.1 µM ([3]; Repeat1): 101%
activity at 0.1 µM ([3]; Repeat2): 101%
activity at 0.333 µM ([3]; Repeat1): 96%
activity at 0.333 µM ([3]; Repeat2): 98%
activity at 1 µM ([3]; Repeat1): 97%
activity at 1 µM ([3]; Repeat2): 98%
activity at 3.3 µM ([3]; Repeat1): 100%
activity at 3.3 µM ([3]; Repeat2): 99%
activity at 10 µM ([3]; Repeat1): 91%
activity at 10 µM ([3]; Repeat2): 86%
activity at 33 µM ([3]; Repeat1): 79%
activity at 33 µM ([3]; Repeat2): 76%
activity at 100 µM ([3]; Repeat1): 34%
activity at 100 µM ([3]; Repeat2): 28%
IC50 ([3]; mean of two experiments): 63.6 ± 4.2 µM
Compound: C=CC(=O)Nc1ccc(-c2cc(C(=O)Nc3ccc(N4CCN(C)CC4)cc3)c3ccccc3n2)cc1 [Compound P19]
